In brackets after ≈: the same amount, converted by molar mass. Read-outs that look alike come from different tables or passages of the source.
Experiments:
Assay in all cases: microbe, parasite or virus in culture
[1] = system: S. thermophilus YM-C; format: cell-based, Streptococcus thermophiles; conditions: 37 °C 24 h, peptides 0.5-128 μM, lowest concentration inhibiting 95% of growth, three independent experiments, read-out: MICs, S. thermophilus YM-C
Method: (§1) The peptide antimicrobial activity was determined according to the Clinical and Laboratory Standards Institute method, with modifications. Bacteria concentration was measured by ultraviolet spectrophotometer, and fungi concentration was confirmed by McMillan’s turbidimetric method, which compared the fungi solution with the standard McFarland tube in front of the horizontal line on the paper with the naked eye. Because the light has different refract in different liquids. The standard solution is composed of sulfuric acid and barium chloride, which is equivalent to 1*10^8 CFU fungi. After cultivation, the growth of fungi and bacteria was measured by TECAN automatic enzyme label instrument. Briefly, bacterial cells were cultured in MHB until logarithmic phase, yeast colonies cultured in Yeast Peptone Dextrose Agar (YPDA) were picked and diluted in RPMI 1640 growth medium buffered with morpholine propane sulfonic acid (MOPS), and then 50 μL of bacterial or fungi cell solution (0.5–1 × 10^4 CFU/mL) was added to each well of sterile 96-well plates. Each well contained 50 μL of AMPs dissolved in BSA; the final concentrations of the peptides ranged from 0.5 to 128 μM. The lowest concentration of peptide with no microbial growth being observed were measured after incubation at 37 °C for 24 h for bacteria or at 28 °C for 48 h for fungi. Broth with microbial cells and un-inoculated broth were used as positive control and negative controls, respectively.

[2] = system: L. rhamnosus 1.0385; format: cell-based, Lactobacillus rhamnosus; conditions: 37 °C 24 h, peptides 0.5-128 μM, lowest concentration inhibiting 95% of growth, three independent experiments, read-out: MICs, L. rhamnosus 1.0385
Method: as §1

[3] = system: L. rhamnosus 1.0911; format: cell-based, Lactobacillus rhamnosus; conditions: 37 °C 24 h, peptides 0.5-128 μM, lowest concentration inhibiting 95% of growth, three independent experiments, read-out: MICs, L. rhamnosus 1.0911
Method: as §1

[4] = system: Fluconazole-resistant C. albicans 56214; conditions: for MIC: Candida albicans, 48 h, read-out: MICs, C. albicans 56214
Method: as §1, with “Bacteria concentration was measured by ultraviolet spectrophotometer, and fungi concentration was confirmed by McMillan’s turbidimetric method, which compared the fungi solution with the standard McFarland tube in front of the horizontal line on the paper with the naked eye.” left out, “The lowest concentration of peptide with no microbial growth being observed were measured after incubation at 37 °C for 24 h for bacteria or at 28 °C for 48 h for fungi.” left out

[5] = system: C. albicans SP3903; format: cell-based, Candida albicans; conditions: clinical isolate, RPMI 1640 buffered with MOPS, 28 °C 48 h, 0.5-128 μM, read-out: MICs, C. albicans SP3903
Method: as §1

[6] = system: C. albicans SP3937; format: cell-based, Candida albicans; conditions: clinical isolate, RPMI 1640 buffered with MOPS, 28 °C 48 h, 0.5-128 μM, read-out: MICs, C. albicans SP3937
Method: as §1

[7] = system: C. albicans SP3902; format: cell-based, Candida albicans; conditions: clinical isolate, RPMI 1640 buffered with MOPS, 28 °C 48 h, 0.5-128 μM, read-out: MICs, C. albicans SP3902
Method: as §1

[8] = system: C. albicans Isolated from Alveolar Fluid; format: cell-based, Candida albicans; conditions: RPMI 1640 buffered with MOPS, 28 °C 48 h, 0.5-128 μM, read-out: MICs, C. albicans Isolated from Alveolar Fluid
Method: as §1

[9] = system: C. albicans cgmcc 2.2086; format: cell-based, Candida albicans; conditions: RPMI 1640 buffered with MOPS, 28 °C 48 h, 0.5-128 μM, read-out: MICs, C. albicans cgmcc 2.2086
Method: as §1

[10] = system: C. parapsilosis cgmcc 2.3989; format: cell-based; conditions: RPMI 1640 buffered with MOPS, 28 °C 48 h, 0.5-128 μM, read-out: MICs, C. parapsilosis cgmcc 2.3989
Method: as §1

[11] = system: C. tropicalis cgmcc 2.1975; format: cell-based; conditions: RPMI 1640 buffered with MOPS, 28 °C 48 h, 0.5-128 μM, read-out: MICs, C. tropicalis cgmcc 2.1975
Method: as §1

[12] = system: L. plantarum 7469; format: cell-based; conditions: 37 °C 24 h, peptides 0.5-128 μM, lowest concentration inhibiting 95% of growth, three independent experiments, read-out: MICs, L. plantarum 7469
Method: as §1

[13] = Lacticaseibacillus rhamnosus, 1.0385
[14] = Lacticaseibacillus rhamnosus, 1.0911
[15] = Lodderomyces parapsilosis, CGMCC2
[16] = Lactiplantibacillus plantarum, 7469

| Compound | MIC ([1]; Streptococcus thermophilus) | MIC [2, 13] | MIC [3, 14] | MIC [4] | MIC ([5]; Candida albicans, SP3903) | MIC ([6]; Candida albicans, SP3937) | MIC ([7]; Candida albicans, SP3902) | MIC ([8]; Candida albicans) | MIC ([9]; Candida albicans, CGMCC2) | MIC [10, 15] | MIC ([11]; Candida tropicalis, CGMCC2) | MIC [12, 16] | also measured |
| --- | --- | --- | --- | --- | --- | --- | --- | --- | --- | --- | --- | --- | --- |
| CC[C@H](C)[C@H](NC(=O)CN)C(=O)NCC(=O)N[C@@H](C)C(=O)N[C@H](C(=O)N[C@@H](CC(C)C)C(=O)N[C@@H](CCCCN)C(=O)N[C@H](C(=O)N[C@@H](CC(C)C)C(=O)N[C@H](C(=O)N[C@H](C(=O)NCC(=O)N[C@@H](CC(C)C)C(=O)N1CCC[C@H]1C(=O)N[C@@H](C)C(=O)N[C@@H](CC(C)C)C(=O)N[C@H](C(=O)N[C@@H](CO)C(=O)N[C@@H](Cc1c[nH]c2ccccc12)C(=O)N[C@H](C(=O)N[C@@H](CCCCN)C(=O)N[C@@H](CCCNC(=N)N)C(=O)N[C@@H](CCCCN)C(=O)N[C@@H](CCCNC(=N)N)C(=O)N[C@@H](CCC(N)=O)C(=O)N[C@@H](CCC(N)=O)C(N)=O)[C@@H](C)CC)[C@@H](C)CC)[C@@H](C)O)[C@@H](C)O)C(C)C)C(C)C [Melittin, reference compound] | – | – | – | – | – | – | – | – | – | – | – | – | MIC [1]: >128 µM; MIC [2]: >128 µM; MIC [3]: >128 µM; MICs, C. albicans 56214 ([4]; fluconazole-resistant strain, RPMI 1640 buffered with MOPS, 28 °C 48 h, 0.5-128 μM): 2 µM; MIC [5]: 2 µM (≈ 5.69 µg/mL); MIC [6]: 4 µM (≈ 11.4 µg/mL); MIC [7]: 4 µM (≈ 11.4 µg/mL); MIC [8]: 4 µM (≈ 11.4 µg/mL); MIC [9]: 4 µM (≈ 11.4 µg/mL); MIC [10]: 2 µM (≈ 5.69 µg/mL); MIC [11]: 2 µM (≈ 5.69 µg/mL); MIC [12]: >128 µM |
| OC(Cn1cncn1)(Cn1cncn1)c1ccc(F)cc1F [Fluconazole, reference compound] | > 128 µM | > 128 µM | > 128 µM | > 128 µM | 32 µM (≈ 9.8 µg/mL) | 16 µM (≈ 4.9 µg/mL) | 16 µM (≈ 4.9 µg/mL) | 2 µM (≈ 0.613 µg/mL) | 1 µM (≈ 0.306 µg/mL) | 4 µM (≈ 1.23 µg/mL) | 4 µM (≈ 1.23 µg/mL) | > 128 µM | – |
| C[C@@H]1[C@H](O)[C@@H](C)/C=C/C=C/C=C/C=C/C=C/C=C/C=C/[C@H](O[C@@H]2O[C@H](C)[C@@H](O)[C@H](N)[C@@H]2O)C[C@@H]2O[C@](O)(C[C@@H](O)C[C@@H](O)[C@H](O)CC[C@@H](O)C[C@@H](O)CC(=O)O[C@H]1C)C[C@H](O)[C@H]2C(=O)O [Amphotericin B, reference compound] | > 128 µM | > 128 µM | > 128 µM | 1 µM (≈ 0.924 µg/mL) | 0.5 µM (≈ 0.462 µg/mL) | 0.5 µM (≈ 0.462 µg/mL) | 0.5 µM (≈ 0.462 µg/mL) | 1 µM (≈ 0.924 µg/mL) | 1 µM (≈ 0.924 µg/mL) | 2 µM (≈ 1.85 µg/mL) | 1 µM (≈ 0.924 µg/mL) | > 128 µM | – |
